In the supplement of paper PMC11061612:

Legend:
[1] = system: SNU-16 (Gastric Carcinoma); test: Bliss excess, mean over the matrix (fraction); higher = more synergy
In short: (§1)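 Cell lines grown in DMEM/F12 or RPMI with 10% FBS were plated in 1536-well plates and held 24 hours at 37°C, 5% CO2 before 72 hours of exposure to two-drug dose matrices, with DMSO typically at 0.2%. CellTiter-Glo 2.0 luminescence gave viability, which was converted to inhibition. Vehicle wells were set to 0 and blank wells to 1. Combination Emax is the second-highest inhibition in the matrix, and Bliss excess is the observed combination effect minus the expected EA + EB − EA·EB, where EA and EB are the single-agent effects.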

[2] = system: BE-13 (T-Lymphoblastic Leukemia); test: as above
In short: as §1

[3] = system: SAS (Oral Cavity Carcinoma); test: as above
In short: as §1

[4] = system: KYAE-1 (Esophageal Adenocarcinoma); test: as above
In short: as §1

CAL-72 (Osteosarcoma) = test: as above
In short: as §1

[5] = system: NCI-H524 (Small Cell Lung Carcinoma); test: as above
In short: as §1

[6] = system: HH (T-Cell Non-Hodgkin's Lymphoma); test: as above
In short: as §1

[7] = system: YAPC (Pancreatic Carcinoma); test: as above
In short: as §1

[8] = system: LNZTA3WT4 (Low Grade Glioma); test: as above
In short: as §1

[9] = system: ESS-1 (Other Solid Carcinomas); test: combination Emax (second highest fraction inhibited in the dose matrix, 72 h); higher = more inhibition; extreme values may be limits of the assay
In short: as §1

[10] = system: OVCAR-5 (Ovarian Carcinoma); test: as above
In short: as §1

[11] = system: HH (T-Cell Non-Hodgkin's Lymphoma); test: as above
In short: as §1

[12] = system: CAL-33 (Oral Cavity Carcinoma); test: Bliss excess, mean over the matrix (fraction); higher = more synergy
In short: as §1

[13] = system: KMRC-20 (Kidney Carcinoma); test: as above
In short: as §1

[14] = system: HeLa (Cervical Carcinoma); test: as above
In short: as §1

[15] = system: Detroit562 (Head and Neck Carcinoma); test: as above
In short: as §1

[16] = system: OV-56 (Ovarian Carcinoma); test: as above
In short: as §1

[17] = system: FTC-133 (Thyroid Gland Carcinoma); test: as above
In short: as §1

[18] = system: ALL-PO (B-Lymphoblastic Leukemia); test: combination Emax (second highest fraction inhibited in the dose matrix, 72 h); higher = more inhibition; extreme values may be limits of the assay
In short: as §1

[19] = system: LS-123 (Colorectal Carcinoma); test: Bliss excess, mean over the matrix (fraction); higher = more synergy
In short: as §1
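Wherever Bliss excess, mean over the matrix is given: after 72 h of two-drug dosing.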

SMILES | Bliss excess [1] | Bliss excess [2] | Bliss excess [3] | Bliss excess [4] | Bliss excess (CAL-72 (Osteosarcoma)) | Bliss excess [5] | Bliss excess [6] | Bliss excess [7] | Bliss excess [8] | combination Emax [9] | combination Emax [10] | combination Emax [11] | Bliss excess [12] | Bliss excess [13] | Bliss excess [14] | Bliss excess [15] | Bliss excess [16] | Bliss excess [17] | combination Emax [18] | Bliss excess [19]
CN(CCO)CC[C@H](CSc1ccccc1)Nc1ccc(S(=O)(=O)NC(=O)c2ccc(N3CCC([C@@H](O)c4ccccc4-c4ccc(Cl)cc4)CC3)cc2)cc1S(=O)(=O)C(F)(F)F [AZD4320] + CC(=O)O[C@H]1C(=O)[C@@]2(C)[C@H]([C@H](OC(=O)c3ccccc3)[C@]3(O)C[C@H](OC(=O)[C@H](O)[C@@H](NC(=O)c4ccccc4)c4ccccc4)C(C)=C1C3(C)C)[C@]1(OC(C)=O)CO[C@@H]1C[C@@H]2O [Paclitaxel] (first compound max 1 µM, 7x7, partner max 3 µM) | 0.0287 | 0.0037 | 0.0322 | 0.0811 | 0.19 | 0.0333 | 0.254 | -0.0321 | 0.0016 | 1 | 0.973 | 0.837 |  |  |  |  |  |  |  | 
CN(CCO)CC[C@H](CSc1ccccc1)Nc1ccc(S(=O)(=O)NC(=O)c2ccc(N3CCC([C@@H](O)c4ccccc4-c4ccc(Cl)cc4)CC3)cc2)cc1S(=O)(=O)C(F)(F)F [AZD4320] + Cc1cc2ncnn2cc1Nc1ncc2c(n1)n(C1CCOCC1)c(=O)n2C [AZD7648] (first compound max 1 µM, 7x7, partner max 10 µM) | 0.0237 | 0.0028 | -0.0533 | -0.0461 | 0.0278 | -0.044 | -0.0459 | -0.0465 | -0.0358 | 0.502 | 0.17 | 0.265 | -0.009 | -0.0393 | -0.0345 | -0.0281 | -0.0109 | -0.0097 | 0.992 | 
CN(CCO)CC[C@H](CSc1ccccc1)Nc1ccc(S(=O)(=O)NC(=O)c2ccc(N3CCC([C@@H](O)c4ccccc4-c4ccc(Cl)cc4)CC3)cc2)cc1S(=O)(=O)C(F)(F)F [AZD4320] + Nc1ccn([C@@H]2O[C@H](CO)[C@@H](O)C2(F)F)c(=O)n1 [Gemcitabine] (first compound max 1 µM, 7x7, partner max 0.3 µM) | 0.0538 | -0.0285 | 0.0374 | 0.0074 | 0.129 | -0.0216 | -0.0085 | 0.011 | -0.0125 | 0.998 | 0.633 | 0.293 |  |  |  |  |  |  |  | 
COc1nnc2ccc(N3CCC(c4ccc(OCCN5CCN(C)C(=O)[C@H]5C)cc4)CC3)nn12 [AZD5153] + CN(CC[C@H](CSC1=CC=CC=C1)NC2=C(C=C(C=C2)S(=O)(=O)NC(=O)C3=CC=C(C=C3)N4CCC(CC4)[C@H](C5=CC=CC=C5C6=CC=C(C=C6)Cl)O)S(=O)(=O)C(F)(F)F)CCO [AZD4320] (first compound max 1 µM, 7x7, partner max 1 µM) |  |  |  |  |  |  |  |  |  |  |  |  | -0.0117 | 0.0384 | -0.033 | 0.0847 | 0.015 | 0.112 | 1 | 
Cc1cc2ncnn2cc1Nc1ncc2c(n1)n(C1CCOCC1)c(=O)n2C [AZD7648] + C=CCn1c(=O)c2cnc(Nc3ccc(N4CCN(C)CC4)cc3)nc2n1-c1cccc(C(C)(C)O)n1 [AZD1775] (first compound max 10 µM, partner max 1 µM) | -0.0345 | 0.0217 | 0.0079 | -0.048 | -0.0194 | -0.0254 | -0.0461 | 0.0325 | -0.0049 | 0.974 | 0.412 | 0.431 | 0.0238 | -0.0164 | -0.0542 | 0.0575 | 0.0602 | 0.0069 | 0.966 | -0.079
Cc1cc2ncnn2cc1Nc1ncc2c(n1)n(C1CCOCC1)c(=O)n2C [AZD7648] + CCN(CCO)CCCOc1ccc2c(Nc3cc(CC(=O)Nc4cccc(F)c4)[nH]n3)ncnc2c1 [AZD2811] (first compound max 10 µM, 7x7, partner max 1 µM) | 0.0793 | -0.066 | 0.0058 | -0.002 | 0.0448 | -0.0043 | -0.0598 | 0.0032 | 0.0063 | 0.665 | 0.262 | 0.245 | -0.0089 | 0.026 | 0.0511 | -0.0142 | 0.0307 | 0.0066 | 0.979 | -0.0172
Cc1cc2ncnn2cc1Nc1ncc2c(n1)n(C1CCOCC1)c(=O)n2C [AZD7648] + CN(C)CCCOc1ccc(-c2ccc3ncc4c(c3c2)n(C2CCOCC2)c(=O)n4C)cn1 [AZD0156] (first compound max 10 µM, 7x7, partner max 1 µM) | 0.0214 | -0.0188 | 0.0623 | 0.0007 | -0.0908 | 0.0254 | -0.0338 | -0.0126 | 0.0113 | 0.481 | 0.287 | 0.285 | 0.0227 | -0.0232 | 0.0376 | 0.0129 | 0.0081 | 0.0239 | 0.265 | 0.0338
Cc1cc2ncnn2cc1Nc1ncc2c(n1)n(C1CCOCC1)c(=O)n2C [AZD7648] + C[C@@H]1COCCN1C2=NC(=NC(=C2)C3(CC3)[S@](=N)(=O)C)C4=C5C=CNC5=NC=C4 [AZD6738] (first compound max 10 µM, 7x7, partner max 10 µM) | -0.009 | -0.0121 | 0.0211 | 0.0399 | 0.0292 | 0.035 | 0.0284 | 0.0058 | -0.0165 | 0.971 | 0.757 | 0.337 | 0.0013 | -0.0207 | 0.0258 | 0.0217 | 0.0044 | -0.0369 | 0.925 | -0.0021
Cc1cc2ncnn2cc1Nc1ncc2c(n1)n(C1CCOCC1)c(=O)n2C [AZD7648] + O=C(c1cc(Cc2n[nH]c(=O)c3ccccc23)ccc1F)N1CCN(C(=O)C2CC2)CC1 [Olaparib] (first compound max 10 µM, 7x7, partner max 10 µM) | -0.0301 | -0.0079 | -0.0245 | -0.0362 | -0.0093 | -0.0698 | -0.0269 | -0.0521 | -0.0341 | 0.402 | 0.231 | 0.22 | -0.0237 | -0.0594 | -0.0016 | -0.0108 | -0.0157 | -0.0306 | 0.608 | -0.0221
Cc1nc(Nc2ncc(C(=O)Nc3c(C)cccc3Cl)s2)cc(N2CCN(CCO)CC2)n1 [Dasatinib] + CC(=O)Nc1cccc(-n2c(=O)n(C3CC3)c(=O)c3c(Nc4ccc(I)cc4F)n(C)c(=O)c(C)c32)c1 [Trametinib] (first compound max 2 µM, 7x7, partner max 1 µM) | -0.0261 | 0.123 | 0.0083 | -0.0114 | -0.0409 | -0.0362 | -0.0188 | 0.0605 | -0.0794 | 0.776 | 0.905 | 0.216 | -0.0189 | -0.0518 | -0.0672 | -0.0007 | 0.0114 | -0.0878 | 0.451 | 0.0891
N#Cc1cnc(Nc2cc(NC[C@H]3CNCCO3)c(C(F)(F)F)cn2)cn1 [SRA737] + C=CCn1c(=O)c2cnc(Nc3ccc(N4CCN(C)CC4)cc3)nc2n1-c1cccc(C(C)(C)O)n1 [AZD1775] (first compound max 10 µM, partner max 1 µM) | 0.109 | 0.0657 | 0.0236 | 0.0021 | 0.0934 | 0.108 | 0.0569 | 0.0265 | -0.0108 | 1 | 0.762 | 0.475 |  |  |  |  |  |  |  | -0.0025
N#Cc1cnc(Nc2cc(NC[C@H]3CNCCO3)c(C(F)(F)F)cn2)cn1 [SRA737] + CCc1c2c(nc3ccc(O)cc13)-c1cc3c(c(=O)n1C2)COC(=O)[C@]3(O)CC [SN-38] (first compound max 10 µM, 7x7, partner max 0.3 µM) | 0.0524 | 0.057 | -0.0333 | 0.0142 | 0.0489 | 0.113 | 0.017 | -0.041 | -0.002 | 1 | 0.784 | 0.452 |  |  |  |  |  |  |  | -0.0163
N#Cc1cnc(Nc2cc(NC[C@H]3CNCCO3)c(C(F)(F)F)cn2)cn1 [SRA737] + Nc1ccn([C@@H]2O[C@H](CO)[C@@H](O)C2(F)F)c(=O)n1 [Gemcitabine] (first compound max 10 µM, 7x7, partner max 0.3 µM) | -0.103 | 0.0965 | 0.105 | 0.0075 | 0.0042 | 0.0346 | 0.0878 | 0.0439 | 0.0301 | 1 | 0.685 | 0.634 |  |  |  |  |  |  |  | 0.0948
C[C@@H](c1ccc2nccn2c1)n1nnc2ncc(-c3cnn(C)c3)nc21 [Savolitinib] + CN(CC[C@H](CSC1=CC=CC=C1)NC2=C(C=C(C=C2)S(=O)(=O)NC(=O)C3=CC=C(C=C3)N4CCC(CC4)[C@H](C5=CC=CC=C5C6=CC=C(C=C6)Cl)O)S(=O)(=O)C(F)(F)F)CCO [AZD4320] (first compound max 1 µM, 7x7, partner max 1 µM) |  |  |  |  |  |  |  |  |  |  |  |  | -0.0104 | -0.0048 | -0.0391 | -0.0189 | -0.0078 | -0.056 | 0.989 | 
